Experimental data taken from PubChem BioAssay AID1963843 (Molecular Pharmacology Branch, DTP, NCI, 2024).

System: 616215-338-R-J1-PDC complex spheroid viability
Experiment: Anticancer human tumor 616215-338-R-J1-PDC patient-derived colon adenocarcinoma cell line growth inhibition [POLQ]
Conditions: for IC50: curve of first compound; for viability, T/C: stronger effect = lower value
Experimental: Multicellular complex tumor spheroid response to Polymerase (POL) inhibitors (novobiocin, ART-558, RP6685) in combination with a variety of drugs and investigational agents in selected tumor cell lines
The POL inhibitors (novobiocin, ART-558, and RP6685) were evaluated both individually and in combination with standard of care and investigational anticancer small molecules within a complex spheroid model of solid tumors. . Complex spheroids include a stromal component modeled by human endothelial cells (HUVEC) and fibroblasts modeled by human mesenchymal stem cells (MSCs). The concentration ranges selected for each drug and investigational agent were based upon clinically achievable concentrations if the clinical Cmax of the agent was known.
Compounds. The drugs and investigational agents: novobiocin (NSC847541), ART-558 (NSC835418), RP-6685 (NSC848927), peposertib (NSC802822), ceralasertib (NSC780249), elimusertib (NSC800525), camonsertib (NSC841442), AZD-1390 (NSC803789), olaparib (NSC753686), talazoparib (NSC767125), rucaparib (NSC756644), sotorasib (NSC818433), MRTX-1133 (NSC836407), SN-38 (NSC673596), topotecan (NSC609699), epotoside (NSC141540), doxorubicin (NSC123127), gemcitabine (NSC613327), 5-fluorouracil (NSC19893), paclitaxel (NSC125973), vemurafenib (NSC761431), MSA-2 (NSC828583), SN-011 (NSC837082), adavosertib (NSC754352), prexasertib (NSC758257), carboplatin (NSC241240) and oxaliplatin (NSC266046), were obtained from the National Cancer Institute (NCI) Developmental Therapeutics Program Chemical Repository (21). The FDA-approved anticancer drug set is available from the Developmental Therapeutics Program at https://dtp.cancer.gov/organization/dscb/obtaining/. […] The stock solutions were prepared in dimethyl sulfoxide (DMSO, Sigma-Aldrich, St. Louis, MO, cat. D2650), except for the platinum compounds which were prepared in saline (Quality Biological, Gaithersburg, MD, cat. 114-055-101), at 800-fold the tested concentration and stored at -70 degrees C prior to their use. All drugs and investigational agents were tested over a range starting from a high concentration at or near the clinical Cmax and decreasing in half-log increments. If the clinical Cmax for an agent had not been determined, the highest concentration tested was 10 microM, except for SN-38, which was tested at a high concentration of 1 microM.
Cell Culture. All cells were maintained in an incubator at 37 degrees C and 5% CO2 with 95% humidity. The PDC lines were cultured according to standard operating procedures established by the NCI PDMR (https://pdmr.cancer.gov). Table 3 of the manuscript, lists the cell lines along with the number of the three cell types plated to form the mct-spheroids and media for tumor cell growth. After thawing, all PDC lines, except 997537-175-T-J1-PDC and 415267-285-R-J2-PDC, were cultured in Matrigel-coated flasks prepared with a working solution of 1X Ham's F-12 nutrient mix, without supplementation (Thermo Fisher Scientific, cat. 11765054), 100 U/mL penicillin-streptomycin (Thermo Fisher Scientific, cat. 15140122), and 2.5% Matrigel (Corning Inc., Corning, NY, cat. 354248) for the first three passages. The two PDC lines 997537-175-T-J1-PDC and 415267-285-R-J2-PDC were cultured on uncoated flasks. The 857933-349-R-J2-PDC line was cultured in 6C/Colon 1B media containing advanced DMEM/F-12 (Thermo Fisher Scientific, cat. 12634028), 10 mM HEPES (Thermo Fisher Scientific, cat. 15630080), 1X GlutaMAX supplement (Thermo Fisher Scientific, cat. 35050061), 0.1 mg/mL primocin (InvivoGen, San Diego, CA, cat. ant-pm-2), 10% defined fetal bovine serum, heat inactivated (HyClone Laboratories Inc., Logan, UT, cat. SH30070.03HI), 50% L-WRN conditioned media (ATCC, cat. CRL-3276), 1.25 mM N-Acetyl-L-cysteine (Sigma-Aldrich, cat. A9165), 10 mM nicotinamide (Sigma-Aldrich, cat. N0636), 1X B-27 supplement (Thermo Fisher Scientific, cat. 17504044), 1X N-2 supplement (Thermo Fisher Scientific, cat. […]
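Further: spheroids exposed to compounds for one week before readout.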
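Wherever viability, T/C is given: percent viability relative to DMSO vehicle wells taken as 100%.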

CCc1c2c(nc3ccc(O)cc13)-c1cc3c(c(=O)n1C2)COC(=O)[C@]3(O)CC + Cc1cccc(N(C)C(=O)C2C(O)CCN2c2nc(C)cc(C(F)(F)F)c2C#N)c1
IC50 (second compound 0.0316 µM): 87.2 nM | IC50 (second compound 0.1 µM): 91.2 nM | IC50 (second compound 0.316 µM): 84.5 nM | IC50 (second compound 1 µM): 78.6 nM | IC50 (second compound 3.16 µM): 65.9 nM | IC50 (second compound 10 µM): 47.4 nM | viability, T/C (second compound 0.0316 µM, first compound 0.00316 µM): 104% | viability, T/C (second compound 0.0316 µM, first compound 0.01 µM): 97% | viability, T/C (second compound 0.0316 µM, first compound 0.0316 µM): 72.8% | viability, T/C (second compound 0.0316 µM, first compound 0.1 µM): 49.3% | viability, T/C (second compound 0.0316 µM, first compound 0.316 µM): 24.6% | viability, T/C (second compound 0.0316 µM, first compound 1 µM): 20.8% | viability, T/C (second compound 0.1 µM, first compound 0.00316 µM): 114% | viability, T/C (second compound 0.1 µM, first compound 0.01 µM): 90.5% | viability, T/C (second compound 0.1 µM, first compound 0.0316 µM): 71.9% | viability, T/C (second compound 0.1 µM, first compound 0.1 µM): 44.5% | viability, T/C (second compound 0.1 µM, first compound 0.316 µM): 33.5% | viability, T/C (second compound 0.1 µM, first compound 1 µM): 16.1% | viability, T/C (second compound 0.316 µM, first compound 0.00316 µM): 109% | viability, T/C (second compound 0.316 µM, first compound 0.01 µM): 87.1% | viability, T/C (second compound 0.316 µM, first compound 0.0316 µM): 69.7% | viability, T/C (second compound 0.316 µM, first compound 0.1 µM): 48.1% | viability, T/C (second compound 0.316 µM, first compound 0.316 µM): 26.9% | viability, T/C (second compound 0.316 µM, first compound 1 µM): 18.6% | viability, T/C (second compound 1 µM, first compound 0.00316 µM): 111% | viability, T/C (second compound 1 µM, first compound 0.01 µM): 92.9% | viability, T/C (second compound 1 µM, first compound 0.0316 µM): 79.9% | viability, T/C (second compound 1 µM, first compound 0.1 µM): 40.1% | viability, T/C (second compound 1 µM, first compound 0.316 µM): 26% | viability, T/C (second compound 1 µM, first compound 1 µM): 18.7% | viability, T/C (second compound 3.16 µM, first compound 0.00316 µM): 116% | viability, T/C (second compound 3.16 µM, first compound 0.01 µM): 80.7% | viability, T/C (second compound 3.16 µM, first compound 0.0316 µM): 67.8% | viability, T/C (second compound 3.16 µM, first compound 0.1 µM): 41.6% | viability, T/C (second compound 3.16 µM, first compound 0.316 µM): 27.5% | viability, T/C (second compound 3.16 µM, first compound 1 µM): 22.1% | viability, T/C (second compound 10 µM, first compound 0.00316 µM): 97.7% | viability, T/C (second compound 10 µM, first compound 0.01 µM): 68.7% | viability, T/C (second compound 10 µM, first compound 0.0316 µM): 62.3% | viability, T/C (second compound 10 µM, first compound 0.1 µM): 39% | viability, T/C (second compound 10 µM, first compound 0.316 µM): 25% | viability, T/C (second compound 10 µM, first compound 1 µM): 23.1%

CC(=O)O[C@H]1C(=O)[C@@]2(C)[C@H]([C@H](OC(=O)c3ccccc3)[C@]3(O)C[C@H](OC(=O)[C@H](O)[C@@H](NC(=O)c4ccccc4)c4ccccc4)C(C)=C1C3(C)C)[C@]1(OC(C)=O)CO[C@@H]1C[C@@H]2O + Nc1ccc(C#CCN(C(=O)Cc2ncc(C(F)(F)F)cc2C(F)(F)F)c2ccc(F)cc2)nn1
IC50 (second compound 0.0316 µM): < 9.49 nM | IC50 (second compound 0.1 µM): < 9.49 nM | IC50 (second compound 0.316 µM): < 9.49 nM | IC50 (second compound 1 µM): < 9.49 nM | IC50 (second compound 3.16 µM): < 9.49 nM | IC50 (second compound 10 µM): < 9.49 nM | viability, T/C (second compound 0.0316 µM, first compound 0.00949 µM): 38.1% | viability, T/C (second compound 0.0316 µM, first compound 0.03 µM): 25.5% | viability, T/C (second compound 0.0316 µM, first compound 0.0949 µM): 22.9% | viability, T/C (second compound 0.0316 µM, first compound 0.3 µM): 18.4% | viability, T/C (second compound 0.0316 µM, first compound 0.949 µM): 16.6% | viability, T/C (second compound 0.0316 µM, first compound 3 µM): 17.7% | viability, T/C (second compound 0.1 µM, first compound 0.00949 µM): 50% | viability, T/C (second compound 0.1 µM, first compound 0.03 µM): 24.6% | viability, T/C (second compound 0.1 µM, first compound 0.0949 µM): 21.3% | viability, T/C (second compound 0.1 µM, first compound 0.3 µM): 17.4% | viability, T/C (second compound 0.1 µM, first compound 0.949 µM): 17.6% | viability, T/C (second compound 0.1 µM, first compound 3 µM): 19% | viability, T/C (second compound 0.316 µM, first compound 0.00949 µM): 42.3% | viability, T/C (second compound 0.316 µM, first compound 0.03 µM): 22.4% | viability, T/C (second compound 0.316 µM, first compound 0.0949 µM): 20.9% | viability, T/C (second compound 0.316 µM, first compound 0.3 µM): 19.1% | viability, T/C (second compound 0.316 µM, first compound 0.949 µM): 16.8% | viability, T/C (second compound 0.316 µM, first compound 3 µM): 14.8% | viability, T/C (second compound 1 µM, first compound 0.00949 µM): 41.1% | viability, T/C (second compound 1 µM, first compound 0.03 µM): 25% | viability, T/C (second compound 1 µM, first compound 0.0949 µM): 24.1% | viability, T/C (second compound 1 µM, first compound 0.3 µM): 26.1% | viability, T/C (second compound 1 µM, first compound 0.949 µM): 14% | viability, T/C (second compound 1 µM, first compound 3 µM): 16.6% | viability, T/C (second compound 3.16 µM, first compound 0.00949 µM): 30.2% | viability, T/C (second compound 3.16 µM, first compound 0.03 µM): 22.1% | viability, T/C (second compound 3.16 µM, first compound 0.0949 µM): 22.4% | viability, T/C (second compound 3.16 µM, first compound 0.3 µM): 20.2% | viability, T/C (second compound 3.16 µM, first compound 0.949 µM): 16.5% | viability, T/C (second compound 3.16 µM, first compound 3 µM): 15.1% | viability, T/C (second compound 10 µM, first compound 0.00949 µM): 36.9% | viability, T/C (second compound 10 µM, first compound 0.03 µM): 25% | viability, T/C (second compound 10 µM, first compound 0.0949 µM): 23.3% | viability, T/C (second compound 10 µM, first compound 0.3 µM): 18.4% | viability, T/C (second compound 10 µM, first compound 0.949 µM): 18.1% | viability, T/C (second compound 10 µM, first compound 3 µM): 21.6%
